Molecular target: T1, PI3K-alpha enzyme (Homo sapiens, UniProt P42336)
T1 construct: purchased Millipore 14-602
Experiment: PI3-Kinase (human) HTRF Assay kit, PI3K alpha enzyme IC50 determination
Type: biochemical
Conditions: ATP 10 μM, PIP2 10 μM, 1% DMSO, double holes for each concentration, read-out: the half inhibitory concentrations (IC50) of the tested compounds on PI3K-alpha
Experimental: Prepare fresh before each use. […] 1 μL of each was added to 24 μL 1× Reaction Buffer. 5 μL of each diluted solution was added into a 384-well plate and contained 1% DMSO. […] This working solution should be prepared with 0.1-0.2 ml more to meet the control usage and dead volume. […] In a 20 μL kinase reaction system, the concentration of ATP was 10 μM. For example, to prepare 2 ml ATP working solution, take 8 μL 10 mM ATP and add it to 1992 μL 1× reaction buffer.

T1 sequence (P42336 whole entry): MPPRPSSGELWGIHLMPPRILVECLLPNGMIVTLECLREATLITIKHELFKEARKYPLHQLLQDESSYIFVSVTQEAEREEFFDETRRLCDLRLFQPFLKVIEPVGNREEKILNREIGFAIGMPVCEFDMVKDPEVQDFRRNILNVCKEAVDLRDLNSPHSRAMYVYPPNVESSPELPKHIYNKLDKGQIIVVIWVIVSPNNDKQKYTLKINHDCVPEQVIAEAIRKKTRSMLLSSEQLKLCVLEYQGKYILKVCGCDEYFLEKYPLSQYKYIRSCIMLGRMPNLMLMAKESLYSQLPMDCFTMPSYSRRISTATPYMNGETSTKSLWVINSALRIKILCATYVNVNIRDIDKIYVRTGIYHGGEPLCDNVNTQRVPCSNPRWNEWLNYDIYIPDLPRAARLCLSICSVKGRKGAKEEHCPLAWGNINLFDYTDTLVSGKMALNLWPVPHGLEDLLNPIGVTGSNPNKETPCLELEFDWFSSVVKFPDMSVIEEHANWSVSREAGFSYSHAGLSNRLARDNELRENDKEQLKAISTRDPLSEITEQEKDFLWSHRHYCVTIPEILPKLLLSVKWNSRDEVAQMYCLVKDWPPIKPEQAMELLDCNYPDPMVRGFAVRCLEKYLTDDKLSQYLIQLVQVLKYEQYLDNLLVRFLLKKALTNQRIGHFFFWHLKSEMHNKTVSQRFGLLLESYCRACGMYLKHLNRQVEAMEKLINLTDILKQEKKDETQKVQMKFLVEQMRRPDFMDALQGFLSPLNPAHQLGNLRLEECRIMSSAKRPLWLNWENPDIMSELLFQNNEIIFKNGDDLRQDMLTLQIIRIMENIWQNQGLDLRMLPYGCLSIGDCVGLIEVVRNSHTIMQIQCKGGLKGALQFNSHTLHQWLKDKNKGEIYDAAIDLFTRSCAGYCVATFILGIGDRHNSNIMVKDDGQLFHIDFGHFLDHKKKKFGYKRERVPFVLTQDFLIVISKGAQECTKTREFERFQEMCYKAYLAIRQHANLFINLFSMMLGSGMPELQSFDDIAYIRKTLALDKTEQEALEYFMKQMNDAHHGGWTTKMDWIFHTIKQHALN
T1 sequence (P27986 whole entry partner): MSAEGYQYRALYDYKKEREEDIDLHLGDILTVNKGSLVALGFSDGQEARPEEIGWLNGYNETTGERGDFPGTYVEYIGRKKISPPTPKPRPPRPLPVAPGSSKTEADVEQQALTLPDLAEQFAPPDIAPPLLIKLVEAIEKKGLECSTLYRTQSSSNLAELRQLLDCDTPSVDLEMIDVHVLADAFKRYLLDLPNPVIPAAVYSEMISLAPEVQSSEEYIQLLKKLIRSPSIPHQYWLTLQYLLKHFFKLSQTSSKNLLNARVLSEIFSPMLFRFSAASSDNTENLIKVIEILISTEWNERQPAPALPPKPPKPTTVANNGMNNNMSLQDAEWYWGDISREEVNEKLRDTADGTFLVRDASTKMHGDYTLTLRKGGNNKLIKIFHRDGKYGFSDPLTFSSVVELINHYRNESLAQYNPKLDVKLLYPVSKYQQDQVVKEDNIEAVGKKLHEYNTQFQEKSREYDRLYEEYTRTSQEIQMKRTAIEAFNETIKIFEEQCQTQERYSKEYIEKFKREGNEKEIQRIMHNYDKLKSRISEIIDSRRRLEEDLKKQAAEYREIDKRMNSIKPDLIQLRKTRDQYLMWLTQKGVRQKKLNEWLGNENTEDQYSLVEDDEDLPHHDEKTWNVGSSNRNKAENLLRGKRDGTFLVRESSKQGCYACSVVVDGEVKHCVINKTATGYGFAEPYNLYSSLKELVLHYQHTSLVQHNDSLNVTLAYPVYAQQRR

| IC50 [µM] | Compound |
| --- | --- |
| 0.0226 | O=C(Nc1ccc(CO)cc1)Nc1ccc(-c2nc(N3CCOCC3)c3[nH]cnc3n2)cc1 [RMP-D06, 1-(4-(hydroxymethyl)phenyl)-3-(4-(6-morpholino-7H-purin-2-yl)phenyl)urea] |
| 0.215 | O=C(Nc1ccc(-c2nc(N3CCOCC3)c3[nH]cnc3n2)cc1)Nc1ccc(CO)c(C(F)(F)F)c1 [RMP-D07, 1-(4-(hydroxymethyl)-3-(trifluoromethyl)phenyl)-3-(4-(6-morpholino-7H-purin-2-yl)phenyl)urea] |
| 0.0461 | O=C(Nc1ccc(COCCN2CCOCC2)cc1)Nc1ccc(-c2nc(N3CCOCC3)c3[nH]cnc3n2)cc1 [RMP-D08, 1-(4-(6-morpholino-7H-purin-2-yl)phenyl)-3-(4-((2-morpholinoethoxy)methyl)phenyl)urea] |
